The values below come from patent US6569849B1, “N-Substituted azaheterocyclic compounds” (Novo Nordisk A/S, priority 1996, dated 2003).

Series [1] concerns histamine induced paw oedema. Kind of series: Histamine induced paw oedema (rat histamine paw oedema test). It counts as in vivo, male Sprague-Dawley rats. The settings on record: 1.0 mg/kg, intraperitoneally 15 minutes before anaesthetics; paw swelling 20 minutes after histamine, water plethysmography. The protocol: Compounds of formula I may be used to treat all painful, hyperalgesic and/or inflammatory conditions in which C-fibres play a pathophysiological role by eliciting neurogenic pain or inflammation, i.e.: The rat histamine paw oedema test was performed essentially as described by Amann et al. (Europ. J. Pharmacol. 279, 227-231, 1995). In brief 250-300 g male Sprague-Dawley rats were anaesthetized with pentobarbital sodium, and placed on a 32 degree (Celsius) heated table. Ten minutes later histamine (50 micoliter, 3 mg/ml) was injected in the right hind paw and 20 minutes hereafter the paw swelling was determined by water plethysmography (Ugo Basile). Test compounds were administered intraperitoneally at 15 minutes before the anaesthetics. Values for inhibition of histamine induced oedema response for some representative compounds are recorded in table 1.

Structures can show the parent of a compound that is named as a salt.

As a reminder, the melting point is the temperature of the solid-liquid transition. For the compound `Cl.O=C(O)[C@@H]1CCCN(Cc2ccc(C3c4ccccc4CCc4ccccc43)cc2)C1`, the melting point lay within 167 to 175 °C.

`CC(CN1c2ccccc2CCc2ccccc21)CN1CCCCC1C(=O)O` (as salt: hydrochloride) (hydrate or solvate) [Example 3, 1-(3-(10,11-Dihydro-5H-dibenzo[b,f]azepin-5-yl)-(2R)-methyl-1-propyl)-(2R)-piperidinecarboxylic Acid Hydrochloride] returned a melting point of 201 to 216 °C.

Compound `CC(CCN1c2ccccc2CCc2ccccc21)N1CCC[C@@H](C(=O)O)C1.Cl` (stereo partly drawn) (hydrate or solvate) showed a melting point of 214 to 218 °C.

Consider `CC(CN1c2ccccc2CCc2ccccc21)N1CCC[C@@H](C(=O)O)C1.Cl` (stereo partly drawn) (hydrate or solvate), for which the melting point was in the range of 213 to 223 °C.

As to `CC(CN1CCC[C@@H](C(=O)O)C1)=C1c2ccccc2CCc2ccccc21.Cl` (hydrate or solvate), the melting point was 151 to 155 °C.

Compound `CCCC(CN1CCC[C@@H](C(=O)O)C1)CN1c2ccccc2CCc2ccccc21.Cl` (stereo partly drawn) (hydrate or solvate) yielded a melting point of 116 to 120 °C.

`Cl.O=C(O)[C@@H]1CCCN(CCC(=O)N2c3ccccc3CCc3ccccc32)C1` (hydrate or solvate): the melting point fell in the range of 180 to 183 °C.

Compound `O=C(O)[C@@H]1CCCN(CC#CCN2c3ccccc3CCc3ccccc32)C1` (hydrate or solvate) [Example 10, (R)-1-(4-(10,11-Dihydro-5H-dibenzo[b,f]azepin-5-yl)-2-butyn-1-yl)-3-piperidinecarboxylic Acid] gave a melting point of 153 to 154 °C.

On to `CN(CCN1CCC[C@@H](C(=O)O)C1)C1c2ccccc2CCc2ccccc21` (hydrate or solvate) [Example 30, (R)-1-(2-(N-(10,11-dihydro-5H-dibenzo[a,d]cyclohepten-5-yl)-N-methylamino)ethyl)-3-piperidinecarboxylic Acid], for which the melting point lay in the range of 187 to 190 °C.

As for `CC(CN1c2ccccc2CCc2ccccc21)CN1CCCCC1C(=O)O` [Example 3, 1-(3-(10,11-Dihydro-5H-dibenzo[b,f]azepin-5-yl)-(2R)-methyl-1-propyl)-(2R)-piperidinecarboxylic Acid Hydrochloride], the “% Oedema inhibition” value in series [1] came out at 47%.

As to `Cl.O=C(O)[C@@H]1CCCN(C/C=C\CN2c3ccccc3CCc3ccccc32)C1` [Example 4, 1-(4-(10,11-Dihydro-5H-dibenzo[b,f]azepin-5-yl)-(2Z)-butenyl)-(3R)-piperidinecarboxylic Acid Hydrochloride], the “% Oedema inhibition” value in series [1] came out at 26%.

Consider `O=C(O)[C@@H]1CCCN(C(=O)CC=C2c3ccccc3CCc3ccccc32)C1` [Example 5, 1-(3-(10,11-Dihydro-5H-dibenzo[a,d]cyclohepten-5-ylidene)-1-propionyl)-(3R)-piperidinecarboxylic Acid], for which the melting point was 71 to 76 °C.
